# According to patent US20110268794A1, “METHODS AND MATERIALS FOR DELIVERING BILE ACIDS” (priority 2009, published 2011):
# Experiments:
# Format in all cases: in vivo, human
# female IBS-C patients = assay: Scintigraphic gastrointestinal and colonic transit, female IBS-C patients (Example 2)
# Experimental: The following study was performed to evaluate the effects of ileocolonic delivery of sodium chenodeoxycholate (CDC) on gastrointestinal (GI) and colonic transit and bowel function in constipation-predominant irritable bowel syndrome (IBS-C). A double-blind, placebo-controlled study evaluated effects of once-daily CDC for 4 days in 36 female IBS-C patients (mean age 41.80±1.62 y). Patients were randomized to oral placebo, 500 mg or 1000 mg CDC delivered to the ileocolonic region in pH-sensitive, methacrylate-coated capsules. Fasting serum 7α-hydroxy-4-cholesten-3-one (7αC4) was measured to assess for baseline abnormalities in bile acid synthesis. […] Treatment effects were compared by ANCOVA with BMI as a covariate, and each CDC dose against placebo by Dunnett's test.
# healthy volunteers [1] = assay: Scintigraphic gastrointestinal and colonic transit, healthy volunteers (Example 1); conditions: for AC t1/2 (ascending colon emptying) / CF 6 (colonic filling at 6 hours) / GC 4 (colonic geometric center at 4 h) / GC 6 (colonic geometric center at 6 h) / GC 8 (colonic geometric center at 8 h) / GC 48 (colonic geometric center at 48 h) / GC 24 (colonic geometric center at 24 h) / GE t1/2 (gastric emptying): N = 20, mean ± SEM; for GC 48 (colonic geometric center at 48 h): overall p < 0.0001; for GC 24 (colonic geometric center at 24 h): overall p = 0.01; for GE t1/2 (gastric emptying): methacrylate-coated capsule
# Experimental: This was a double-blind, placebo-controlled, randomized study evaluating the effects of sodium chenodeoxycholate (CDC) or placebo orally administered once daily for four days in healthy volunteers.
# Randomization was 1:1:1 for placebo, chenodeoxycholate 500 mg, and chenodeoxycholate 1000 mg. Sodium chenodeoxycholate was purchased from Calbiochem, EMD Chemicals Inc., and Mayo pharmacy prepared identical placebo and chenodeoxycholate capsules, all of which were coated with the pH sensitive polymer, methacrylate. The latter dissolves at the neutral pH found in the distal ileum and was used to ensure ileocolonic delivery of the chenodeoxycholate.
# Three groups (n=20 each) were randomized to oral placebo, 500 mg or 1000 mg CDC daily (in pH-sensitive, methacrylate-coated capsules), each for a period of 4 days.
# Gastrointestinal (GI) and colonic transit was conducted by a scintigraphic method (Burton et al., J. Nucl. Med., 38:1807-10 (1997); Cremonini et al., Aliment Pharmacol. Ther., 16:1781-90 (2002); and Camilleri and Zinsmeister, Gastroenterology, 103:36-42 (1992)) during the last 48 hours of drug ingestion (FIG. 1).
# An adaptation of an established scintigraphic method was used to measure GI and colonic transit (Burton et al., J. Nucl. Med., 38:1807-10 (1997); Cremonini et al., Aliment Pharmacol. Ther., 16:1781-90 (2002); and Camilleri and Zinsmeister, Gastroenterology, 103:36-42 (1992)). ^111In was adsorbed on to activated charcoal particles and delivered to the colon by means of a methacrylate-coated, delayed-release oral capsule. The capsule was ingested following an overnight fast. After the capsule emptied from the stomach, a ^99mTc-sulfur colloid radiolabeled meal was ingested. It consisted of two scrambled eggs, one slice of whole wheat bread, and one glass of whole milk. This meal facilitates measurement of gastric and small bowel transit. Subjects ingested standardized meals for lunch and dinner at 4 and 8 hours after the radiolabeled meal, respectively. Abdominal scans were obtained every hour for the first 6 hours (the first 4 hours for the assessment of gastric emptying) and at 8, 24, and 48 hours after ingestion of the ^111In capsule. The performance characteristics of this test are summarized elsewhere (Cremonini et al., Aliment Pharmacol. Ther., 16:1781-90 (2002)).
# The counts in the stomach and each of four colonic regions: ascending, transverse, descending, and combined sigmoid and rectum were quantitated with a variable region of interest program. Counts were corrected for isotope decay, tissue attenuation, and downscatter of ^111In counts in the ^99mTc window (Burton et al., J. Nucl. Med., 38:1807-10 (1997) and Cremonini et al., Aliment Pharmacol. Ther., 16:1781-90 (2002)).
# Gastric emptying t1/2 is a measure of the time for 50% of the radiolabeled meal (identifiable by radiolabeled tracer) to empty from the stomach. Colonic filling at 6 hours, or the proportion of the radiolabeled meal to have reached the colon at 6 hours is an indirect measurement of small bowel transit time. Overall colonic transit was summarized as the colonic geometric center (GC) at specified times. The GC is the weighted average of counts in the different colonic regions [ascending (AC), transverse (TC), descending (DC), rectosigmoid (RS)] and stool, respectively 1 to 5. Thus, at any time, the proportion of counts in each colonic region is multiplied by its weighting factor as follows:
# (% AC×1+% TC×2+% DC×3+% RS×4+% stool×5)/100=GC
# Thus, a higher GC reflects a faster colonic transit. Ascending colon emptying was summarized by the t1/2 calculated by linear interpolation of values on the AC emptying curve.
# The primary endpoints were the colonic GC at 24 hours (GC 24) and AC emptying t1/2.
# healthy volunteers [2] = assay: Adverse events, healthy volunteers (Example 1)
# Experimental: This was a double-blind, placebo-controlled, randomized study evaluating the effects of sodium chenodeoxycholate (CDC) or placebo orally administered once daily for four days in healthy volunteers. An independent statistician generated the randomization code. Clinical and laboratory study personnel were blinded throughout the study until data were locked and analyzed. Safety monitoring was conducted throughout the study. Three groups (n=20 each) were randomized to oral placebo, 500 mg or 1000 mg CDC daily (in pH-sensitive, methacrylate-coated capsules), each for a period of 4 days.
# [3] = 500 mg or 1000 mg once daily 4 days vs placebo
# [4] = CDC 500 mg once daily 4 days, N = 11, mean ± SEM
# [5] = CDC 1000 mg once daily 4 days, N = 12, mean ± SEM
# [6] = 500 mg or 1000 mg once daily 4 days vs placebo, healthy volunteers
# [7] = CDC 500 mg once daily 4 days, n=20
structure (smiles),measurement,setting,value
"C[C@H](CCC(=O)O)[C@H]1CC[C@H]2[C@@H]3[C@H](O)C[C@@H]4C[C@H](O)CC[C@]4(C)[C@H]3CC[C@]12C [CDC, sodium chenodeoxycholate]",Effect on colonic filling at 6 hours,female IBS-C patients; [3],not affected
same,Effect on gastric emptying t1/2,female IBS-C patients; [3],not affected
same,AC t1/2 (ascending colon emptying),female IBS-C patients; [4],9.55 ± 2.90 h
same,CF 6 (colonic filling at 6 hours),female IBS-C patients; [4],52.64 ± 6.67%
same,GC 24 (colonic geometric center at 24 hours),female IBS-C patients; [4],3.12 ± 0.43
same,AC t1/2 (ascending colon emptying),female IBS-C patients; [5],8.19 ± 1.78 h
same,CF 6 (colonic filling at 6 hours),female IBS-C patients; [5],54.75 ± 7.05%
same,GC 24 (colonic geometric center at 24 hours),female IBS-C patients; [5],3.49 ± 0.36
same,Treatment effect on colonic filling,healthy volunteers [1]; [6],not detected
same,Treatment effect on gastric emptying,healthy volunteers [1]; [6],not detected
same,AC t1/2 (ascending colon emptying),healthy volunteers [1]; CDC 500 mg once daily 4 days,12.1 ± 2.1 h
same,CF 6 (colonic filling at 6 hours),healthy volunteers [1]; CDC 500 mg once daily 4 days,49.6 ± 7.0%
same,GC 4 (colonic geometric center at 4 h),healthy volunteers [1]; CDC 500 mg once daily 4 days,0.87 ± 0.18
same,GC 6 (colonic geometric center at 6 h),healthy volunteers [1]; CDC 500 mg once daily 4 days,1.53 ± 0.28
same,GC 8 (colonic geometric center at 8 h),healthy volunteers [1]; CDC 500 mg once daily 4 days,1.83 ± 0.27
same,GC 48 (colonic geometric center at 48 h),healthy volunteers [1]; CDC 500 mg once daily 4 days,4.10 ± 0.21
same,GC 24 (colonic geometric center at 24 h),healthy volunteers [1]; CDC 500 mg once daily 4 days,2.80 ± 0.27
same,GE t1/2 (gastric emptying),healthy volunteers [1]; CDC 500 mg oral once daily 4 days,2.115 ± 0.0883 h
same,AC t1/2 (ascending colon emptying),healthy volunteers [1]; CDC 1000 mg once daily 4 days,10.7 ± 1.9 h
same,CF 6 (colonic filling at 6 hours),healthy volunteers [1]; CDC 1000 mg once daily 4 days,46.0 ± 7.1%
same,GC 4 (colonic geometric center at 4 h),healthy volunteers [1]; CDC 1000 mg once daily 4 days,1.27 ± 0.33
same,GC 6 (colonic geometric center at 6 h),healthy volunteers [1]; CDC 1000 mg once daily 4 days,2.20 ± 0.43
same,GC 8 (colonic geometric center at 8 h),healthy volunteers [1]; CDC 1000 mg once daily 4 days,2.52 ± 0.39
same,GC 48 (colonic geometric center at 48 h),healthy volunteers [1]; CDC 1000 mg once daily 4 days,4.92 ± 0.05
same,GC 24 (colonic geometric center at 24 h),healthy volunteers [1]; CDC 1000 mg once daily 4 days,3.76 ± 0.30
same,GE t1/2 (gastric emptying),healthy volunteers [1]; CDC 1000 mg oral once daily 4 days,2.383 ± 0.235 h
same,Serious adverse events,"healthy volunteers [2]; 500 mg or 1000 mg once daily 4 days, healthy volunteers",no serious adverse events
same,"Percent of participants dizzy, light-headed",healthy volunteers [2]; [7],10%
same,Percent of participants with URI,healthy volunteers [2]; [7],0%
same,Percent of participants with diarrhea,healthy volunteers [2]; [7],40%
same,Percent of participants with gas,healthy volunteers [2]; [7],5%
same,Percent of participants with headache,healthy volunteers [2]; [7],25%
same,Percent of participants with loose stools,healthy volunteers [2]; [7],15%
